Legend:
HMEC1 = experiment: Cell viability assay (MTT), HMEC1; assay type: cell-based, Human; settings: MTT, 10% FBS, 6-day treatment, 1% DMSO
Method in brief: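 HMEC1 cells seeded 24 h before dosing, then exposed to 0–200 μM compound (11 concentrations) in medium with 10% FBS and 1% DMSO final, refed every 3 days. Viability read on day 6 by MTT (0.5 mg/ml, 1–5 h at 37 °C), absorbance 550 nm; IC50 from dose-response curves, mean±SEM of 1–8 experiments.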

HepG2 = experiment: Cell viability assay (MTT), HepG2; assay type: cell-based; settings: Homo sapiens, 10% FBS, 16-hours treatment, 1% DMSO
Protocol: (§1) Table 15: 16-hour cell viability assay (MTT) in the presence of 10% Fetal Bovine Serum and 1% DMSO, in HCT116, MDA-MB-231, NIH3T3, HepG2 and primary hepatocytes. 5 10^4 to 10 10^4 cells were seeded in 48-well plates in growth medium containing 10% FBS, with or without various concentrations of test compounds. Data were analyzed and IC50s were calculated from dose-reponse curves using GraphPad Prism. Results summarized in the tables are mean±SEM of 1 to 2 independent experiments.
(§2) In order to determine a compound's effect on cell viability, microculture tetrazolium assays (MTT) were performed as described by Carmichael et al. (1996) with modifications. Four human tumoral cell lines, namely HCT116 colon adenocarcinoma, H460 lung carcinoma, MCF-7 and MDA-MB-231 breast carcinoma cell lines, DLD1 colorectal adenocarcinoma, HeLa adenocarcinoma, HepG2 hepatocellular carcinoma. 3 immortalized but non tumorigenic cell lines, namely NIH3T3 mouse fibroblasts (American Type Culture Collection) and primary hepatocytes (Biopredic international), cultured according to their recommendations together with Human Microvasculature Endothelial Cell line HMEC1 (National Center for Infectious Diseases). Briefly, cells were seeded in 48-well plates 24 hours before drug addition. Cells were treated with 0 to 200 μM (11 concentrations) of compound solubilized in DMSO, adjusting the final concentration of DMSO to 1% in the well. 16 hours, and three or six days after treatment, 0.5 mg/ml MTT (Sigma) was added to the medium and cells were incubated for 1-5 hours at 37° C. before solubilization of formazan crystals in 100% DMSO. Absorbance was measured using a spectrophotometer at a wavelength of 550 nm. Data was analyzed using the GraphPad Prism software (GraphPad Software, Inc.), and IC50 (dose leading to 50% cell death) was calculated from the dose-response curves.

Primary Hepatocytes = experiment: Cell viability assay (MTT), primary hepatocytes; assay type: cell-based; settings: Hepatocyte, 10% FBS, 16-hours treatment, 1% DMSO
Protocol: as §1, §2

REF cells = experiment: Lamellipodia/ruffles formation after wounding; assay type: cell-based
Protocol: This assay has been described by Nobes & Hall (J. Cell Biol., 1999). • Preparation of REF cells: REF cells are prepared from 15-18 E14 embryos. Briefly, the head, tail and viscerae are removed from the embryo. Only the torso is kept, sliced into small squares, washed, treated with trypsin-EDTA for 20 min. at 37° C., resuspended in medium, counted and plated. After 24 h, the cells are trypsinized and frozen in cryovials. 48 h before the wound healing assay, the cells are plated on coverslips. The day of the experiment, the cells are treated with the test compounds or DMSO alone. After 30 min., a scrape is done in the center of the coverslip using a small pipette tip. The cells are washed and fresh medium containing the compound or the DMSO is added. • Time-Lapse microscopy: The dishes containing the scraped coverslips and the treatment medium, sealed with parafilm is put under a thermostated microscope (37° C.) coupled to a video camera and a computer. Microscope images were collected every 5 minutes and recorded using the OpenLab software. When the assay is terminated (after 4 to 24 hours), pictures and movies are analyzed using the Metamorphe software. The pictures were calibrated (pixel converted to μm), and the velocity and total distance covered were calculated after tracking 7 to 10 single cells on the movies. […] The position of each point was recorded. […]

SMILES	IC50 (HMEC1; Homo sapiens, HMEC-1, 144 h)	IC50 (HMEC1; trihydrochloride)	IC50 (HepG2)	IC50 (Primary Hepatocytes)	lamellipodia/ruffles formation after wounding (REF cells)
CN1CCN(Cc2cc(=O)c(OCCCCCSc3ccnc4cc(C(F)(F)F)ccc34)co2)CC1.Cl.Cl.Cl [EHT 9241, 5-(5-(7-(Trifluoromethyl)quinolin-4-ylthio)pentyloxy)-2-((4-methylpiperazin-1-yl)methyl)-4H-pyran-4-one trihydrochloride]	< 10 µM	8.2 µM	11.3 µM	29.6 µM	dose-dependent inhibition of lamellipodia/ruffles formation
Cl.Cl.Cl.O=c1cc(CN2CCNCC2)occ1OCCCCCSc1ccnc2cc(C(F)(F)F)ccc12 [EHT 8560, 5-(5-(7-(Trifluoromethyl)quinolin-4-ylthio)pentyloxy)-2-((piperazin-1-yl)methyl)-4H-pyran-4-one trihydrochloride]	< 10 µM	6.1 µM	9.75 µM	17.3 µM	
Cl.Cl.O=c1cc(CN2CCOCC2)occ1OCCCCCSc1ccnc2cc(C(F)(F)F)ccc12 [EHT 1864, 5-(5-(7-(Trifluoromethyl)quinolin-4-ylthio)pentyloxy)-2-(morpholinomethyl)-4H-pyran-4-one dihydrochloride]	27.4 µM		60 µM	> 50 µM	dose-dependent inhibition of lamellipodia/ruffles formation

From US7514432B2, “Compounds and methods of treating cell proliferative diseases, retinopathies and arthritis” (Exonhit Therapeutics SA, priority 2003, dated 2009)
